Here are results for 29 molecules from patent publication US20220289753A1, “SHP2 INHIBITORS” (IRBM S.P.A., priority 2019, published 2022).

For the test, the target named is T1, SHP-2 enzyme (Met1-Leu525) (Homo sapiens, UniProt Q06124).
T1 construct: synthetized by Origene, Met1-Leu525, cat #TP750155; purchased Origene TP750155
T1 sequence (Q06124 1-525): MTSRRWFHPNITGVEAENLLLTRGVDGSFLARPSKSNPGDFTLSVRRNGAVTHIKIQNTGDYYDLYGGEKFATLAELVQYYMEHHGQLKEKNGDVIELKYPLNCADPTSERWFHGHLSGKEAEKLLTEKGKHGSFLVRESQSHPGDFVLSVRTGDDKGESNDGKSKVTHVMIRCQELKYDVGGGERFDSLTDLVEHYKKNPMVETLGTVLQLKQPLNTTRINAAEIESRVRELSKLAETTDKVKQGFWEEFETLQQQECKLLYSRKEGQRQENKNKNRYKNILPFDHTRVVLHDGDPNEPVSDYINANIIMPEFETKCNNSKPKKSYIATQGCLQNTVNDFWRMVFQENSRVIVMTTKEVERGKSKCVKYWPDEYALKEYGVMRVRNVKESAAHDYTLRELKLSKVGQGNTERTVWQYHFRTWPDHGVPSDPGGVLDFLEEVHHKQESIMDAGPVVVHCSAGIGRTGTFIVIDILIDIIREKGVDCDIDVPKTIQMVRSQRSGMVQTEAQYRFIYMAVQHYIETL
Description: SHP2 inhibition enzymatic assay (DiFMUP substrate, IRS1 peptide activation). It is filed as biochemical. Particulars: SHP2 wt; activated by 500 nM IRS1 peptide; 75 μM DiFMUP substrate. The procedure: SHP2 Inhibition Enzymatic Assay
Assay volume of 20 μL/well was assembled in 384 well black polystyrene low-binding microplates (Greiner), using the following buffer: 60 mM HEPES pH 7.2, 75 mM NaCl, 75 mM KCl, 1 mM EDTA pH 8, 0.05% tween-20, 5 mM DTT. The SHP-2 enzyme (synthetized by Origene, Met1-Leu525, cat #TP750155) was used at a final concentration of 0.5 nM.
Briefly, DMSO serially diluted testing compounds were transferred to the bottom of the assay plate. SHP2 was then added together with the IRS1 peptide. 30 minutes post incubation, the DiFMUP substrate was added to the reaction and incubated 30 min at room temperature. […] The fluorescence was detected by a microplate reader (Envision, PerkinElmer) according to the DiFMUP excitation and emission wavelength. The lower the fluorescence the higher the SHP2 inhibition.
The percentage inhibition is fitted against the compound dilutions with a four-parameter logistic regression. The inflection point (i.e. the concentration at which half-maximal inhibition is achieved) is the IC50.
For orientation: IC50 means the concentration needed to halve the response being measured. As for `CC1(N)CCN(c2nc3nc(Sc4ccccc4S(C)(=O)=O)cnc3[nH]2)CC1` [Example 117, 4-methyl-1-(5-((2-(methylsulfonyl)phenyl)thio)-1H-imidazo[4,5-b]pyrazin-2-yl)piperidin-4-amine], the IC50 is above 3 µM.
Take `FC(F)(F)c1ncccc1Sc1cnc2[nH]c(N3CCC4(CCN4)CC3)nc2n1` [Example 5, 2-(1,7-diazaspiro[3.5]nonan-7-yl)-5-((2-(trifluoromethyl)pyridin-3-yl)thio)-1H-imidazo[4,5-b]pyrazine]: the concentration for half-maximal inhibition (IC50) was in the range of 0.5 to 3 µM.
`CNC1CCN(c2nc3nc(Sc4cccnc4C(F)(F)F)cnc3[nH]2)CC1` [Example 16, N-methyl-1-(5-((2-(trifluoromethyl)pyridin-3-yl)thio)-1H-imidazo[4,5-b]pyrazin-2-yl)piperidin-4-amine] came in with an IC50 of 0.5 to 3 µM.
`CC1(N)CCN(c2nc3nc(Sc4ccnc(Br)c4)cnc3[nH]2)CC1` [Example 64, 1-(5-((2-bromopyridin-4-yl)thio)-1H-imidazo[4,5-b]pyrazin-2-yl)-4-methylpiperidin-4-amine] yielded an IC50 of 0.5 to 3 µM.
On to `Cc1ccsc1Sc1cnc2[nH]c(N3CCC(C)(N)CC3)nc2n1` [Example 68, 4-methyl-1-(5-((3-methylthiophen-2-yl)thio)-1H-imidazo[4,5-b]pyrazin-2-yl)piperidin-4-amine], for which the IC50 is above 3 µM.
As for `OCCN1CCC(CNc2nc3nc(Sc4cccnc4C(F)(F)F)cnc3[nH]2)CC1` [Example 82, 2-(4-(((5-((2-(trifluoromethyl)pyridin-3-yl)thio)-1H-imidazo[4,5-b]pyrazin-2-yl)amino)methyl)piperidin-1-yl)ethan-1-ol], the IC50 was above 3 µM.
The value for `CC1(N)CCN(c2nc3ncc(Sc4ccc(C5(C#N)CCC5)cc4)nc3[nH]2)CC1` [Example 29, 1-(4-((2-(4-amino-4-methylpiperidin-1-yl)-1H-imidazo[4,5-b]pyrazin-6-yl)thio)phenyl)cyclobutane-1-carbonitrile] was above 3 µM.
Molecule `CC1(N)CCN(c2nc3nc(Sc4ccc(F)cc4F)cnc3[nH]2)CC1` [Example 20, 1-(5-((2,4-difluorophenyl)thio)-1H-imidazo[4,5-b]pyrazin-2-yl)-4-methylpiperidin-4-amine] registered a half-inhibitory concentration (IC50) below 0.5 µM.
For `FC(F)(F)c1ncccc1Sc1cnc2[nH]c(N3CCC(Cn4ccnc4)CC3)nc2n1` [Example 42, 2-(4-((1H-imidazol-1-yl)methyl)piperidin-1-yl)-5-((2-(trifluoromethyl)pyridin-3-yl)thio)-1H-imidazo[4,5-b]pyrazine], the IC50 lay within 0.5 to 3 µM.
In turn, `CC1(N)CCN(c2nc3nc(Sc4cccc5ccncc45)cnc3[nH]2)CC1` [Example 92, 1-(5-(isoquinolin-8-ylthio)-1H-imidazo[4,5-b]pyrazin-2-yl)-4-methylpiperidin-4-amine] came in with an IC50 below 0.5 µM.
The molecule `COCCn1c(N2CCC(C)(N)CC2)nc2nc(Sc3cccnc3C(F)(F)F)cnc21` [Example 129, 1-(1-(2-methoxyethyl)-5-((2-(trifluoromethyl)pyridin-3-yl)thio)-1H-imidazo[4,5-b]pyrazin-2-yl)-4-methylpiperidin-4-amine] came in with a half-maximal inhibitory concentration (IC50) of 0.5 to 3 µM.
Consider `CC1(N)CCN(c2nc3ncc(Sc4cccnc4)nc3[nH]2)CC1` [Example 12, 4-methyl-1-(6-(pyridin-3-ylthio)-1H-imidazo[4,5-b]pyrazin-2-yl)piperidin-4-amine], for which the 50% inhibitory concentration (IC50) fell in the range of 0.5 to 3 µM.
In turn, `CC1(N)CCN(c2nc3nc(Sc4ccccc4-c4nccs4)cnc3[nH]2)CC1` [Example 102, 4-methyl-1-(5-((2-(thiazol-2-yl)phenyl)thio)-1H-imidazo[4,5-b]pyrazin-2-yl)piperidin-4-amine] displayed an IC50 above 3 µM.
Molecule `CCn1c(N2CCC(C)(N)CC2)nc2ncc(Sc3cccnc3C(F)(F)F)nc21` [Example 72, 1-(1-ethyl-6-((2-(trifluoromethyl)pyridin-3-yl)thio)-1H-imidazo[4,5-b]pyrazin-2-yl)-4-methylpiperidin-4-amine] gave an IC50 above 3 µM.
`CC1(N)CCN(c2nc3ncc(Oc4cccc(Cl)c4Cl)nc3[nH]2)CC1` [Example 122, 1-(5-(2,3-dichlorophenoxy)-1H-imidazo[4,5-b]pyrazin-2-yl)-4-methylpiperidin-4-amine] had an IC50 of 0.5 to 3 µM.
`Cn1nc(-c2ccc(Sc3cnc4[nH]c(N5CCC(C)(N)CC5)nc4n3)s2)cc1C(F)(F)F` [Example 57, 4-methyl-1-(5-((5-(1-methyl-5-(trifluoromethyl)-1H-pyrazol-3-yl)thiophen-2-yl)thio)-1H-imidazo[4,5-b]pyrazin-2-yl)piperidin-4-amine] displayed an IC50 above 3 µM.
With `CC1(N)CCN(c2nc3nc(Sc4ccc(C#N)cc4C(F)(F)F)cnc3[nH]2)CC1` [Example 19, 4-((2-(4-amino-4-methylpiperidin-1-yl)-1H-imidazo[4,5-b]pyrazin-5-yl)thio)-3-(trifluoromethyl)benzonitrile], the IC50 is below 0.5 µM.
For `CC1(N)CCN(c2nc3nc(Sc4cccc(C(=O)O)c4)cnc3[nH]2)CC1` [Example 94, 3-((2-(4-amino-4-methylpiperidin-1-yl)-1H-imidazo[4,5-b]pyrazin-5-yl)thio)benzoic acid], the IC50 is below 0.5 µM.
As for `NCC1CCN(c2nc3nc(Sc4cccnc4C(F)(F)F)cnc3[nH]2)CC1` [Example 8, (1-(5-((2-(trifluoromethyl)pyridin-3-yl)thio)-1H-imidazo[4,5-b]pyrazin-2-yl)piperidin-4-yl)methanamine], the figure is 0.5 to 3 µM; as for `CC1(N)CCN(c2nc3nc(Sc4cccnc4C(F)(F)F)cnc3n2CC2CC2)CC1` [Example 13, 1-(1-(cyclopropylmethyl)-5-((2-(trifluoromethyl)pyridin-3-yl)thio)-1H-imidazo[4,5-b]pyrazin-2-yl)-4-methylpiperidin-4-amine], 0.5 to 3 µM; as for `Nc1nccc(Sc2cnc3[nH]c(N4CCC5(CC4)Oc4ccccc4[C@H]5N)nc3n2)c1Cl` [Example 159, (R)-1′-(5-((2-amino-3-chloropyridin-4-yl)thio)-1H-imidazo[4,5-b]pyrazin-2-yl)-3H-spiro[benzofuran-2,4′-piperidin]-3-amine], below 0.5 µM.
`FC(F)(F)c1ncccc1Sc1cnc2[nH]c(NCc3ccn[nH]3)nc2n1` [Example 32, N-((1H-pyrazol-5-yl)methyl)-5-((2-(trifluoromethyl)pyridin-3-yl)thio)-1H-imidazo[4,5-b]pyrazin-2-amine] came in with an IC50 above 3 µM.
On to `CC1(N)CCN(c2nc3nc(Sc4cccc(C#N)c4)cnc3[nH]2)CC1` [Example 26, 3-((2-(4-amino-4-methylpiperidin-1-yl)-1H-imidazo[4,5-b]pyrazin-5-yl)thio)benzonitrile], for which the IC50 fell in the range of 0.5 to 3 µM.
Consider `CC1(N)CCN(c2nc3nc(Sc4ccc(-c5nnc(-c6ccccc6)o5)cc4)cnc3[nH]2)CC1` [Example 59, 4-methyl-1-(5-((4-(5-phenyl-1,3,4-oxadiazol-2-yl)phenyl)thio)-1H-imidazo[4,5-b]pyrazin-2-yl)piperidin-4-amine], for which the IC50 was 0.5 to 3 µM.
Molecule `CC1(N)CCN(c2nc3ncc(Sc4cccc5ncccc45)nc3[nH]2)CC1` [Example 49, 4-methyl-1-(6-(quinolin-5-ylthio)-1H-imidazo[4,5-b]pyrazin-2-yl)piperidin-4-amine] gave an IC50 below 0.5 µM.
`O=C1NCC2(CCCN(c3nc4nc(Sc5cccnc5C(F)(F)F)cnc4[nH]3)C2)O1` (centres unmarked) [Example 83, 7-(5-((2-(trifluoromethyl)pyridin-3-yl)thio)-1H-imidazo[4,5-b]pyrazin-2-yl)-1-oxa-3,7-diazaspiro[4.5]decan-2-one] showed an IC50 above 3 µM.
Take `N[C@@H]1c2ccccc2CC12CCN(c1nc3nc(Sc4ccnc5ccsc45)cnc3[nH]1)CC2` [Example 212, (S)-1′-(5-(thieno[3,2-b]pyridin-7-ylthio)-1H-imidazo[4,5-b]pyrazin-2-yl)-1,3-dihydrospiro[indene-2,4′-piperidin]-1-amine]: the IC50 is below 0.5 µM.
As for `COc1ccc(Sc2cnc3[nH]c(N4CCC(C)(N)CC4)nc3n2)cc1` [Example 45, 1-(5-((4-methoxyphenyl)thio)-1H-imidazo[4,5-b]pyrazin-2-yl)-4-methylpiperidin-4-amine], the IC50 is 0.5 to 3 µM.
Take `NC(=O)C1CCN(c2nc3nc(Sc4cccnc4C(F)(F)F)cnc3[nH]2)CC1` [Example 51, 1-(5-((2-(trifluoromethyl)pyridin-3-yl)thio)-1H-imidazo[4,5-b]pyrazin-2-yl)piperidine-4-carboxamide]: the IC50 is above 3 µM.
